The text below walks through data of the Kinase Knowledgebase extract (Sharma et al. 2016).

For this test, the target named is CDK2 (human) (UniProt P24941). Description: Enzyme Assay.
Regarding `CCNCc1cncc(-c2ccc3[nH]nc(-c4ncc(C(=O)N5CCN(Cc6ccccn6)CC5)[nH]4)c3c2)c1C`, the Ki is < 50 nM.
The same measure for `CCNCc1cncc(-c2ccc3[nH]nc(-c4ncc(C(=O)N5CCCC(Cc6ncccn6)CC5)[nH]4)c3c2)c1C` (stereo not drawn): < 50 nM; for `CCNCc1cncc(-c2ccc3[nH]nc(-c4nc(C(=O)NC5CCCCC5)c[nH]4)c3c2)c1C`: < 50 nM; for `CCNCc1cncc(-c2ccc3[nH]nc(-c4nc(CC)c(CC)[nH]4)c3c2)c1C`: < 50 nM.
With `CCNCc1cncc(-c2ccc3[nH]nc(-c4ncc(C(=O)NCCOC)[nH]4)c3c2)c1C` the figure was < 50 nM; with `CCNCc1cncc(-c2ccc3[nH]nc(-c4nc(C(=O)NCc5cccnc5)c[nH]4)c3c2)c1C`, < 50 nM.
With `CCNCc1cncc(-c2ccc3[nH]nc(-c4ncc(C(=O)N(CC)CC)[nH]4)c3c2)c1C` the figure was < 50 nM; with `Cc1c(N)cncc1-c1ccc2[nH]nc(-c3nc4c([nH]3)CCCC4)c2c1`, < 50 nM; with `CCNCc1cncc(-c2ccc3[nH]nc(-c4cnc[nH]4)c3c2)c1C`, < 50 nM.
Consider `CCNCc1cncc(-c2ccc3[nH]nc(-c4ncc(C(=O)N5CCN(c6ccc(F)cc6F)CC5)[nH]4)c3c2)c1C`, for which the inhibitory constant (Ki) is < 50 nM.
For the compound `Cc1c(N)cncc1-c1ccc2[nH]nc(-c3nc(-c4cccc(F)c4)c[nH]3)c2c1`, the inhibition constant (Ki) was < 50 nM.
Regarding `CCNCc1cncc(-c2ccc3[nH]nc(-c4nc(-c5ccccc5)c[nH]4)c3c2)c1C`, the Ki was < 50 nM.
The same measure for `CCNCc1cncc(-c2ccc3[nH]nc(-c4nc(CC(C)C)c(C)[nH]4)c3c2)c1C`: < 50 nM.
The same measure for `CCNCc1cncc(-c2ccc3[nH]nc(-c4ncc(C(=O)N[C@H]5CCc6ccccc65)[nH]4)c3c2)c1C`: < 50 nM; for `CCCc1nc(-c2n[nH]c3ccc(-c4cncc(CNCC)c4C)cc23)[nH]c1C`: < 50 nM.
The same measure for `Cc1c(CNC(C)C)cncc1-c1ccc2[nH]nc(-c3ncc[nH]3)c2c1`: < 50 nM.
Consider `CCNCc1cncc(-c2ccc3[nH]nc(-c4nc5c([nH]4)CCCC5)c3c2)c1C`, for which the Ki is < 50 nM.
With `CCNCc1cncc(-c2ccc3[nH]nc(-c4ncc(C(=O)NC5C6CC7CC(C6)CC5C7)[nH]4)c3c2)c1C` (stereo not drawn) the figure was < 50 nM; with `CCNCc1cncc(-c2ccc3[nH]nc(-c4nc(-c5ccc(OC)cc5)c[nH]4)c3c2)c1C`, < 50 nM.
As to `CCNCc1cncc(-c2ccc3[nH]nc(-c4ncc(C(=O)N5CCN(CCOC)CC5)[nH]4)c3c2)c1C`, the Ki was < 50 nM.
The same measure for `CCNCc1cncc(-c2ccc3[nH]nc(-c4ncc[nH]4)c3c2)c1C`: < 50 nM; for `CCNCc1cncc(-c2ccc3[nH]nc(-c4nc(-c5cccc(C(F)(F)F)c5)c(C)[nH]4)c3c2)c1C`: < 50 nM; for `C[S+](C)[O-].Cc1c(N)cncc1-c1ccc2[nH]nc(-c3nc(-c4ccccc4)c[nH]3)c2c1`: < 50 nM.
As to `CCNCc1cncc(-c2ccc3[nH]nc(-c4ncc(C(=O)N5CC=C(c6ccccc6)CC5)[nH]4)c3c2)c1C`, the Ki is < 50 nM.
With `CCNCc1cncc(-c2ccc3[nH]nc(-c4nc(-c5ccc(C(F)(F)F)cc5)c(C)[nH]4)c3c2)c1C` the figure was < 50 nM.
Turning to `CCNCc1cncc(-c2ccc3[nH]nc(-c4ncc(C(=O)N5CCN(C)CC5)[nH]4)c3c2)c1C`, the Ki was < 50 nM.
The same measure for `CCNCc1cncc(-c2ccc3[nH]nc(-c4nc(C)c[nH]4)c3c2)c1C`: < 50 nM; for `CCNCc1cncc(-c2ccc3[nH]nc(-c4nc(-c5cccc(F)c5)c[nH]4)c3c2)c1C`: < 50 nM.
The same measure for `CCNCc1cncc(-c2ccc3[nH]nc(-c4nc(-c5ccc(F)cc5)c[nH]4)c3c2)c1C`: < 50 nM; for `CCNCc1cncc(-c2ccc3[nH]nc(-c4nc(-c5cccc(OC)c5)c[nH]4)c3c2)c1C`: < 50 nM.
`CNCc1cncc(-c2ccc3[nH]nc(-c4ncc[nH]4)c3c2)c1C`: the inhibition constant (Ki) is < 50 nM.
The same measure for `CCNCc1cncc(-c2ccc3[nH]nc(-c4ncc[nH]4)c3c2)c1CC`: < 50 nM; for `c1c[nH]c(-c2n[nH]c3ccc(-c4cncc5[nH]ccc45)cc23)n1`: < 50 nM.
With `CCCCCC.CCNCc1cncc(-c2ccc3[nH]nc(-c4nc(CC)c(C)[nH]4)c3c2)c1C` the figure was < 50 nM; with `CCNCc1cncc(-c2ccc3[nH]nc(-c4ncc(C(=O)N5Cc6ccccc6C5)[nH]4)c3c2)c1C`, < 50 nM.
The same measure for `CC(C)(C)O.Cc1c(N)cncc1-c1ccc2[nH]nc(-c3nc(-c4ccc(F)cc4)c[nH]3)c2c1`: < 50 nM; for `CCNCc1cncc(-c2ccc3[nH]nc(-c4nc(-c5ccc(OC)c(OC)c5)c[nH]4)c3c2)c1C`: < 50 nM.
Regarding `CCNCc1cncc(-c2ccc3[nH]nc(-c4ncc(C(=O)NCC)[nH]4)c3c2)c1C`, the inhibition constant (Ki) is < 50 nM.
Take `C1CCCCC1.COCc1cncc(-c2ccc3[nH]nc(-c4nc5c([nH]4)CCCC5)c3c2)c1C`: the Ki was < 50 nM.
The same measure for `CCNCc1cncc(-c2ccc3[nH]nc(-c4ncc(C(=O)NCc5ccccn5)[nH]4)c3c2)c1C`: < 50 nM; for `CCNCc1cncc(-c2ccc3[nH]nc(-c4ncc(C(=O)N(C)C5CCN(Cc6ccccc6)C5)[nH]4)c3c2)c1C` (stereo not drawn): < 50 nM.
With `CCNCc1cncc(-c2ccc3[nH]nc(-c4ncc(C(=O)N5CCC(Oc6ccccc6)CC5)[nH]4)c3c2)c1C` the figure was < 50 nM; with `c1ncc(-c2n[nH]c3ccc(-c4cncc5[nH]ccc45)cc23)[nH]1`, < 50 nM; with `CCNCc1cncc(-c2ccc3[nH]nc(-c4ncc(C(=O)NCCC5=CCCCC5)[nH]4)c3c2)c1C`, < 50 nM.
With `CCNCc1cncc(-c2ccc3[nH]nc(-c4ncc(C(=O)N5CCOCC5)[nH]4)c3c2)c1C` the figure was < 50 nM; with `CCNCc1cncc(-c2ccc3[nH]nc(-c4ncc(C(=O)N5CCN(c6ccccc6)CC5)[nH]4)c3c2)c1C`, < 50 nM; with `CCNCc1cncc(-c2ccc3[nH]nc(-c4ncc(C(=O)NC(C)C)[nH]4)c3c2)c1C`, < 50 nM.
Regarding `CCNCc1cncc(-c2ccc3[nH]nc(-c4ncc(C(=O)N5CCC6CCCCC6C5)[nH]4)c3c2)c1C` (stereo not drawn), the Ki was < 50 nM.
The same measure for `CCNCc1cncc(-c2ccc3[nH]nc(-c4ncc(C(=O)N5C[C@@H](C)O[C@@H](C)C5)[nH]4)c3c2)c1C`: < 50 nM.
With `CCNCc1cncc(-c2ccc3[nH]nc(-c4ncc(C(=O)NCCN(C)C)[nH]4)c3c2)c1C` the figure was < 50 nM; with `CCCCCC.CCNCc1cncc(-c2ccc3[nH]nc(-c4nc(C)c(C)[nH]4)c3c2)c1C`, < 50 nM.
For the compound `CCNCc1cncc(-c2ccc3[nH]nc(-c4nc(-c5ccccc5)c(C)[nH]4)c3c2)c1C`, the inhibitory constant (Ki) is < 50 nM.
With `CCNCc1cncc(-c2ccc3[nH]nc(-c4ncc(C(=O)N(CCN(C)C)Cc5ccccc5)[nH]4)c3c2)c1C` the figure was < 50 nM; with `CCc1nc(-c2n[nH]c3ccc(-c4cncc(N)c4C)cc23)[nH]c1CC`, < 50 nM; with `CCNCc1cncc(-c2ccc3[nH]nc(-c4ncc(C(=O)N5CCCC5)[nH]4)c3c2)c1C`, < 50 nM.
With `CCNCc1cncc(-c2ccc3[nH]nc(-c4ncc(C(=O)N[C@@H]5CCc6ccccc65)[nH]4)c3c2)c1C` the figure was < 50 nM; with `CCNCc1cncc(-c2ccc3[nH]nc(-c4ncc(C(=O)NC5CCCC5)[nH]4)c3c2)c1C`, < 50 nM.
Regarding `CCNCc1cncc(-c2ccc3[nH]nc(-c4nc(-c5ccccc5)c(C(=O)NCc5ccccc5)[nH]4)c3c2)c1C`, the inhibitory constant (Ki) was < 50 nM.
The same measure for `CCNCc1cncc(-c2ccc3[nH]nc(-c4ncc(C(=O)N[C@H]5CCCCNC5=O)[nH]4)c3c2)c1C`: < 50 nM.
With `CCNCc1cncc(-c2ccc3[nH]nc(-c4ncc(C(=O)N5CCCCCC5)[nH]4)c3c2)c1C` the figure was < 50 nM; with `CCNCc1cncc(-c2ccc3[nH]nc(-c4cc(C)n[nH]4)c3c2)c1C`, < 50 nM; with `CCNCc1cncc(-c2ccc3[nH]nc(-c4nc(-c5ccc(Cl)cc5)c(C)[nH]4)c3c2)c1C`, < 50 nM.
The same measure for `CNCc1cncc(-c2ccc3[nH]nc(-c4nc(C)c[nH]4)c3c2)c1C`: < 50 nM.
For the compound `CCNCc1cncc(-c2ccc3[nH]nc(-c4nc5c([nH]4)CCCC5)c3c2)c1CC`, the Ki was < 50 nM.
With `CCNCc1cncc(-c2ccc3[nH]nc(-c4nc(-c5cc(Cl)cc(Cl)c5)c(C)[nH]4)c3c2)c1C` the figure was < 50 nM; with `CCNCc1cncc(-c2ccc3[nH]nc(-c4ncc(C(=O)N5CCC(Cc6ncccn6)CC5)[nH]4)c3c2)c1C`, < 50 nM; with `CCNCc1cncc(-c2ccc3[nH]nc(-c4ncc(C(=O)N5CCN(Cc6ccccc6)CC5)[nH]4)c3c2)c1C`, < 50 nM.
As for `CCNCc1cncc(-c2ccc3[nH]nc(-c4ncc(C(=O)N5CCCCC5)[nH]4)c3c2)c1C`, the Ki was < 50 nM.
